Source: patent publication US20110250262A1, “METHOD FOR PRODUCING LIPOSOME AND METHOD FOR DISSOLVING CHOLESTEROL” (BIOMEDCORE, INC., priority 2008, published 2011)

Experiment: Visual examination of dissolution of phospholipid and cholesterol in sucrose solution containing t-BuOH during cooling from 80° C.
Type: physicochemical
Conditions: cooled from 80° C.
Protocol: […] […] The solution was in the white opaque state at 80° C. Next, the temperature control of the water bath was off while still stirred, so that the solution was slowly cooled down at room temperature. It took about 90 min for the temperature of the water bath to be cooled from 80° C. to 35° C. The solution, which was in the white opaque state at 80° C., turned into a slightly pale transparent state around at 72° C., and the transparency persisted until the temperature fell to around 62° C. From around 62° C., the solution started to become white opaque again, turning into a completely white opaque state at 58° C. This change of state was reversible: the similar change of state was observed when the temperature was gradually raised from room temperature.
This state persisted until the temperature fell down to about 35° C., where the solution suddenly changed into a white opaque state.

[1] = 200 mg cholesterol with 380 mg DPPC in 20 mL 10 wt/vol % sucrose solution + 4.25 mL t-BuOH

For `CC(C)CCC[C@@H](C)[C@H]1CC[C@H]2[C@@H]3CC=C4C[C@@H](O)CC[C@]4(C)[C@H]3CC[C@]12C` [cholesterol, Cholesterol], the “State of the aqueous solution (dissolution), cholesterol alone” value (40 mg cholesterol alone in 4 mL 10 wt/vol % sucrose solution + 0.85 mL t-BuOH) was “the solution never became transparent at any temperature”, the “Lower temperature of the transparent (dissolved) state of the solution” value [1] was “around 62 °C” and the “Upper temperature of the transparent (dissolved) state of the solution” value [1] was roughly 72 °C.

For `CCCCCCCCCCCCCCCC(=O)OC[C@H](COP(=O)([O-])OCC[N+](C)(C)C)OC(=O)CCCCCCCCCCCCCCC` [DPPC, L-α-dipalmitoylphosphatidylcholine], the “State of the aqueous solution (dissolution), DPPC alone” value (75.9 mg DPPC alone in 4 mL 10 wt/vol % sucrose solution + 0.85 mL t-BuOH) was “transparent state between 80 °C and 50 °C”.
